Measured values published in patent US11149300B1, “Methods of treating gastrointestinal malignancies” (Cedars-Sinai Medical Center, priority 2018, dated 2021).
Structures can show the parent of a compound that is named as a salt. Where two headings read alike, the source gives them in different places.

Legend:
[1] = tested on: Breast carcinoma (human MX-1); conditions: agent combined with veliparib; cited from earlier work
[2] = tested on: unresectable pancreatic cancer; conditions: cited from earlier work
pancreatic cancer [3] = conditions: full-dose gemcitabine with 36 Gy; cited from earlier work
[4] = human, in vivo; cited from earlier work
pancreatic cancer [5] = conditions: cited from earlier work
[6] = tested on: locally advanced and metastatic pancreatic adenocarcinoma; conditions: cited from earlier work
[7] = tested on: locally advanced and metastatic pancreatic carcinomas; conditions: cited from earlier work
pancreatic cancer [8] = conditions: in vivo; cited from earlier work
Melanoma (murine B16F10) = conditions: agent combined with veliparib; cited from earlier work
[9] = tested on: B Cell lymphoma (human DOHH2); conditions: agent combined with veliparib; cited from earlier work
[10] = repeated dose toxicity in conjunction with cisplatin; format: in vivo, rats
[11] = cited from earlier work
[12] = in vitro; cited from earlier work
[13] = repeated dose (2-week) toxicology study; conditions: 30 mg base/kg/day
[14] = repeated dose toxicity, sole agent; format: in vivo, rats; conditions: no adverse effects, highest dose tested
[15] = highest dose tested; cited from earlier work
[16] = cited from earlier work; remark: listed apart in the source
[17] = monkey; cited from earlier work
[18] = cited from earlier work; remark: listed apart in the source
PARP = conditions: cited from earlier work
[19] = anesthetized dog cardiovascular model
human 5-HT7 = human 5-HT7 (Homo sapiens, UniProt P34969); conditions: 10 μM (2.4 μg/mL); cited from earlier work
[20] = cited from earlier work; remark: listed apart in the source
[21] = mice, cited from earlier work
C-41 cells = conditions: cited from earlier work
[22] = tested on: locally advanced or borderline resectable pancreatic cancer; assay: Phase I VelGemRad trial, PFS and OS, overall and by DDR biomarker
Method: RNA-seq libraries were prepared from pre-treatment tumor biopsies. The database for annotation, visualization, and integrated discovery (DAVID) v6.7 was used to interpret the differential expression genes data. Cox regression model was used to identify DNA damage related pathways associated with patient survivals.
The secondary objective was to measure the clinical activity of the treatment (progression free survival—PFS, overall survival—OS) and evaluate patient tumor or blood pre-, during and post treatment for DNA damage repair alterations, PAR levels and immune mediators. Between 2013 and 2016, 34 patients enrolled at a single institution. Four were removed due to non-compliance. The median age was 67 and 24 were LAPC and 6 were borderline resectable prostate cancer (BR).
Treatment naïve patients with LA or borderline resectable pancreatic cancer (BR) were treated with weekly G (1000 mg/m^2), daily RT (36 Gy/15 fractions) and V 20 mg BID daily for 3 weeks escalated per Bayesian method followed by standard chemotherapy. DAVID v6.7 was used to interpret transcriptomic differential expression of genes. Cox regression model was used to identify DDR pathways associated with survival. […] The log-rank test was used to evaluate differences in PFS and OS.

PAR in PBMCs and tumor = conditions: cited from earlier work; for treatment related adverse events: single dose 10 or 25 mg
[23] = dog, 5 μM; cited from earlier work
[24] = 8-hour incubation; cited from earlier work
[25] = in vivo; cited from earlier work
[26] = tested on: metastatic triple negative breast cancer; conditions: cited from earlier work
[27] = all patients, with gemcitabine and IMRT
[28] = biomarker positive (+), DNA repair defects by gene expression

human 5-HT7, sequence (P34969 whole entry): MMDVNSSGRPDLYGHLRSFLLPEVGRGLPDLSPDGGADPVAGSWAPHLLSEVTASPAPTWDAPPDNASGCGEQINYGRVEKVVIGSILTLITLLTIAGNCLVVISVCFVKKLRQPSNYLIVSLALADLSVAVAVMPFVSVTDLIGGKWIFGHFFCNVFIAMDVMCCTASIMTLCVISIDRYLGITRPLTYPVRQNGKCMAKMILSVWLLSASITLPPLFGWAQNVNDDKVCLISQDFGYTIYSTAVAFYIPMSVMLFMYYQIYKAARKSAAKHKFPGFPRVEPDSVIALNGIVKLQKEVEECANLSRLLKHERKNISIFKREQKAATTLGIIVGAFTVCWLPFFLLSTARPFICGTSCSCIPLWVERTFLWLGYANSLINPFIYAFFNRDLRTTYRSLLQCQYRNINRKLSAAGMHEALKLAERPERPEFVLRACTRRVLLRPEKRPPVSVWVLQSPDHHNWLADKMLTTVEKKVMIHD

N.N.O=C([O-])C1(C(=O)[O-])CCC1.[Pt+2] [Carboplatin]
veliparib mediated potentiation of cytotoxic agent [1]: Yes

Nc1ccn([C@@H]2O[C@H](CO)[C@@H](O)C2(F)F)c(=O)n1 [gemcitabine, 2′,2′-Difluoro-2′-deoxycytidine]
patients with DLT ([2]; FDR-G with IMRT 50-60 Gy): 6 patients
median overall survival ([2]; in vivo): 23.1 months
median progression-free survival ([2]; in vivo): 7.2 months
response rate ([2]; in vivo): 52.4%
disease control rates (pancreatic cancer [3]): 84.6%
response rates (pancreatic cancer [3]): 5.1%
tolerability (pancreatic cancer [3]): well-tolerated
time to steady-state plasma levels after starting infusion [4]: ≤ 15 min
objective responses (pancreatic cancer [5]; combined arm, gemcitabine 600 mg/m^2 with 50.4 Gy): 8.8%
Grade IV toxicity (pancreatic cancer [5]; combined group): 41.2%
objective responses (pancreatic cancer [5]; gemcitabine alone arm (1000 mg/m^2)): 2.7%
Grade IV toxicity (pancreatic cancer [5]; gemcitabine alone): 5.7%
intracellular gemcitabine triphosphate concentration ([6]; FDR arm versus standard): two-fold increase
median survival ([6]; FDR arm, 1,500 mg/m^2 over 150 minutes): 8.0 months
hematologic toxicity ([6]; FDR infusion arm): increased but acceptable hematologic toxicity
median survival ([6]; standard arm, 2,200 mg/m^2 over 30 minutes): 5.0 months
response rates ([7]; chemo naïve patients): up to 42%
response rates ([7]; heavily pretreated patients): 11-22%
median survival (pancreatic cancer [8]): 5.56 months
patients with clinical benefit (pancreatic cancer [8]): ~25%

CCc1c2c(nc3ccc(OC(=O)N4CCC(N5CCCCC5)CC4)cc13)-c1cc3c(c(=O)n1C2)COC(=O)[C@]3(O)CC [Irinotecan]
veliparib mediated potentiation of cytotoxic agent (Melanoma (murine B16F10)): Yes

N.N.[Cl][Pt][Cl] [Cisplatin]
veliparib mediated potentiation of cytotoxic agent [9]: No
veliparib mediated potentiation of cytotoxic agent [1]: Yes

O=c1[nH]cc(F)c(=O)[nH]1 [5 FU]
median survival (pancreatic cancer [8]): 4.41 months
patients with clinical benefit (pancreatic cancer [8]): 5%

C[C@]1(c2nc3c(C(N)=O)cccc3[nH]2)CCCN1 [veliparib dihydrochloride]
Cmax as multiple of estimated therapeutic peak plasma concentration ([10]; highest dose with cisplatin): 22 fold
Cmax as multiple of estimated therapeutic value ([10]; no clinically meaningful exacerbation): up to 8 fold
toxic findings ([11]; 30 mg base/kg/day): emesis, body weight losses related to anorexia, and convulsions
clastogenicity [12]: negative
mutagenicity [12]: negative
Cmax as multiple of estimated therapeutic peak plasma concentration [13]: 26 fold
Cmax as multiple of estimated therapeutic peak plasma concentration [14]: greater than 19 fold
adverse effects, sole agent [15]: did not result in adverse effects
exacerbation of cisplatin-associated toxicity ([16]; highest dose with cisplatin): Exacerbation of cisplatin-associated toxicity
exacerbation of cisplatin-associated toxicity ([16]; lower doses with cisplatin): no clinically meaningful exacerbations

C[C@]1(c2nc3c(C(N)=O)cccc3[nH]2)CCCN1 [veliparib]
oral bioavailability [17]: 56.1%
change in mean arterial pressure versus baseline ([18]; 12.96 μg/mL): −16±5%
change in systemic vascular resistance versus baseline ([18]; 12.96 μg/mL): −10±7%
QTcV prolongation above baseline ([18]; 12.96±0.92 μg/mL): 15±3%
mean plasma concentration with modest haemodynamic effects ([18]; dog, in vivo): 12960 ± 920 ng/mL
mean plasma concentration without haemodynamic change ([18]; dog, in vivo): 4450 ± 130 ng/mL
mean arterial pressure, heart rate, dP/dtmax, pulmonary arterial pressure, vascular resistance ([18]; mean plasma concentrations up to 4.45 μg/mL): no physiologically relevant changes
delayed repolarization (QTc intervals), trend ([18]; plasma concentrations 21-fold predicted Cmax): 7%
inhibition of PARP activity in tumors (PARP; 12.5, 5 and 1 mg/kg/day, vehicle and temozolomide treated groups): significant
PAR formation in tumors (PARP; veliparib alone, two hours after administration): inhibited PAR formation in B16F10 tumors in a dose-dependent manner
seizures ([11]; 60 mg/kg/day, 30 mg/kg twice daily or 30 mg/kg every day): seizures were also noted
non-toxic dose in the most sensitive mammalian species ([11]; beagle dogs): 300 mg/m^2
plasma concentrations in dogs with seizures ([11]; dog, in vivo): > 5400 ng/mL
multiple of predicted clinical Cmax ([19]; at 4.45 μg/mL): 21 fold
multiple of predicted clinical Cmax ([19]; at 12.96 μg/mL): 62 fold
multiple of predicted clinical Cmax at which QT prolongation was seen ([19]; dog, in vivo): 21 fold
displacement of control-specific binding (human 5-HT7): 84%
potentiation of cisplatin ([20]; long-term clonogenic assay): potentiation was observed
potentiation of cisplatin ([20]; short-term cytotoxicity assay): not in the short-term cytotoxicity assay
outcome after electrically-induced tonic convulsions ([21]; 100 mg/kg PO): increased incidence of death
outcome in audiogenic seizure model [21]: Death was also noted
γ-H2AX foci (DNA damage) (C-41 cells; added to 1 mM temozolomide): further potentiated
DNA damage caused by irinotecan (C-41 cells; with irinotecan): potentiates
median OS ([22]; FA biomarker (+)): 18 months
median OS ([22]; FA biomarker (−)): 12 months
median OS ([22]; MMR biomarker (+)): 18 months
median OS ([22]; MMR biomarker (−)): 12 months
median OS ([22]; NER biomarker (+)): 22 months
median OS ([22]; NER biomarker (−)): 12 months
median overall survival (OS) [22, 27]: 14.6 months
median progression free survival (PFS) [22, 27]: 9.8 months
median OS ([22]; biomarker negative (−)): 12 mos
median PFS ([22]; biomarker negative (−)): 8 mos
median OS [22, 28]: 22 mos
median PFS [22, 28]: 17 mos
patients exceeding target plasma Cmax of 210 nM (PAR in PBMCs and tumor; 10 mg dose level): 2 of 3 patients
patients exceeding target plasma Cmax of 210 nM for at least 4 hours (PAR in PBMCs and tumor; 25 mg dose level): all three patients
reduction of PAR levels from baseline (PAR in PBMCs and tumor; single 25 mg dose, PBMCs and tumor samples): 80-99%
treatment related adverse events (PAR in PBMCs and tumor): No treatment related adverse events
treatment related adverse events (PAR in PBMCs and tumor; listed as ABT-888): no treatment related adverse events
protein binding in plasma, % bound [23]: 42%
stability in plasma [24]: very stable

CC1(c2nc3c(C(N)=O)cccc3[nH]2)CCC(=O)N1 (stereo not shown) [A-925088]
route of clearance [25]: cleared primarily in the urine

NC(=O)c1ccc(I)c([N+](=O)[O-])c1 [BSI-201]
frequency and nature of adverse events ([26]; in vivo): did not differ between arms
clinical outcome versus chemotherapy alone ([26]; with gemcitabine 1000 mg/m^2 and carboplatin AUC=2): improved CBR, median PFS, and median OS

O=P1(N(CCCl)CCCl)NCCCO1 (stereo not shown) [Cyclophosphamide]
veliparib mediated potentiation of cytotoxic agent [1]: Yes
